The test system of one assay is A2058 melanoma. In words: In vivo growth of A2058 melanoma xenografts in nu/nu mice. Also on record: species or system human. The following applies: A2058-RFP; 35 days after inoculation; Pter 30 mg/kg i.v. every 48 h and/or CRC infusion 0.3 μg/h.
Another assay concerns MeWo melanoma. The assay is described as follows: In vivo growth of MeWo melanoma xenografts in nu/nu mice. Also on record: species or system human. The conditions noted are these: MeWo-RFP; 35 days after inoculation; Pter 30 mg/kg i.v. every 48 h and/or CRC infusion 0.3 μg/h.
In a further assay the test system is MelJuso melanoma. The assay is described as follows: In vivo growth of MelJuso melanoma xenografts in nu/nu mice. Set-up: species or system human. The conditions noted are these: MelJuso-RFP; 35 days after inoculation; Pter 30 mg/kg i.v. every 48 h and/or CRC infusion 0.3 μg/h.
In another assay the test system is AsPC-1 pancreatic cancer. The assay is described as follows: In vivo growth of AsPC-1 pancreatic cancer xenografts. The conditions noted are these: AsPC-1-RFP; 28 days after inoculation; Pter and/or CRC. Also on record: species or system human.
A further assay has as its system BxPC-3 pancreatic cancer. In words: In vivo growth of BxPC-3 pancreatic cancer xenografts. Set-up: species or system human. The conditions noted are these: BxPC-3-RFP; 35 days after inoculation; Pter and/or CRC.
Assay [1] has as its system glucocorticoid receptors (GR). The assay is described as follows: GR content of human cancer cells by [3H]-labeled ligand whole-cell binding assay.
A further assay relates to corticosterone. In words: Plasma corticosterone levels (ELISA) in tumor-bearing mice. The following applies: 12 h circadian time. Type of assay: in vivo. The source says: (§1) Measurement of ACTH, Corticosterone, and NORA Levels.
(§2) Plasma levels of ACTH (Calbiotech, Inc., Spring Valley, Calif.), corticosterone (Kamiyama Biomedical Co., Seattle, Wash.), and NORA (IBL, Hamburg, Germany) were quantified by ELISA according to the instructions of the suppliers.
For orientation: An ELISA detects its analyte on a solid surface through an enzyme-linked reagent.

For another assay, the system named is ACTH. The assay is described as follows: Plasma ACTH levels (ELISA) in tumor-bearing mice. It is filed as in vivo. The following applies: 6 h circadian time.
Source text: as §1, §2

Take `C[C@]12C[C@H](O)[C@H]3[C@@H](CCC4=CC(=O)CC[C@@]43C)[C@@H]1CC[C@@H]2C(=O)CO` [CRC, corticosterone, reference compound]: the Tumor vol. in the assay with A2058 melanoma is on record as 857 ± 185 mm^3; with MeWo melanoma it was 426 ± 116 mm^3; in the assay on MelJuso melanoma, 240 ± 94 mm^3; with AsPC-1 pancreatic cancer, 1066 ± 235 mm^3; in the assay on BxPC-3 pancreatic cancer, 588 ± 158 mm^3. Moreover, the “GR number (binding sites/cell)” value in assay [1] (A2058-RFP tumors, day 35) was 80 ± 7 10^3 GR/cell; in assay [1] (AsPC-1-RFP tumors, day 28), 67 ± 7 10^3 GR/cell; in assay [1] (BxPC-3-RFP tumors, day 35), 134 ± 36 10^3 GR/cell; in assay [1] (MeWo-RFP tumors, day 35), 49 ± 7 10^3 GR/cell; in assay [1] (MelJuso-RFP tumors, day 35), 46 ± 6 10^3 GR/cell. For the same molecule, the CRC is 205 ± 48 ng/mL plasma with corticosterone (A2058-bearing mice, day 35); 324 ± 48 ng/mL plasma with corticosterone (AsPC-1-bearing mice, day 28); 177 ± 36 ng/mL plasma in the assay on corticosterone (BxPC-3-bearing mice, day 35); 177 ± 29 ng/mL plasma in the assay on corticosterone (MeWo-bearing mice, day 35); 164 ± 41 ng/mL plasma in the assay with corticosterone (MelJuso-bearing mice, day 35). For the same molecule, the ACTH in the assay with ACTH (AsPC-1-bearing mice, day 28) is 106 ± 17 pg/mL plasma; with ACTH (BxPC-3-bearing mice, day 35), 55 ± 12 pg/mL plasma.

These data come from patent US11179348B2, “Combination comprising pterostilbene for the treatment of cancer” (FUNDACIÓN UNIVERSIDAD CATÓLICA DE VALENCIA SAN VICENTE …, priority 2015, dated 2021).
